One data set can be described thus: in vitro. The settings on record: PAMPA. (In PAMPA a lipid-coated filter parts donor from acceptor wells.)
Data set [1] can be described thus: Microsomal incubations, mouse liver microsomes. In kind it is in vitro ADME. The settings on record: 1 μM. Here is the method:
(§1) Metabolic stability assays were performed using a Microlab Star liquid handling workstation (Hamilton Robotics, Bonaduz, Switzerland). Test compounds (1 μM, 1% DMSO) were preincubated at 37 °C for 10 min in 0.5 mg/mL female CD1 mouse and mixed gender human liver microsomes in 10 mM phosphate buffered saline (PBS; Sigma-Aldrich Company Ltd. (Dorset, UK)). Microsomes were purchased either from Sekisui XenoTech, LLC (Kansas City, USA) or BioreclamationIVT (Frankfurt Am Main, Germany). Reactions were initiated by the addition of NADPH (final concentration 1 mM). At 0, 15, and 30 min, aliquots were removed from each incubation and quenched in 3 volumes of ice-cold methanol containing olomoucine (Sigma-Aldrich, Dorset, UK) as an internal standard. […] The percentage metabolized was calculated by comparing peak area ratio (peak area test compound/peak area of internal standard) at t = 15 and 30 min versus t = 0 min.
In general terms: Liver microsomes are vesicles of endoplasmic reticulum, rich in cytochrome P450 enzymes.

Data set [2] in a line: Microsomal incubations, human liver microsomes. In kind it is in vitro ADME. To be noted: 1 μM. On the procedure: as §1
The next data set addresses T1, purified HHAT (Homo sapiens, UniProt Q5VTY9).
T1 construct: made in house
Kind of data set: Acyl-cLIP assay, inhibition of purified HHAT. In kind it is biochemical. Summed up:
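Fluorescence polarization of FAM-labelled SHH N-terminal peptide palmitoylated by DDM-solubilized purified recombinant HHAT with palmitoyl-CoA, pH 6.5 MES buffer, read over 30 min. Initial rates normalized to DMSO and no-enzyme controls; IC50 from variable-slope sigmoidal fit of 1:1 serial dilutions; single-point % inhibition at 50 and 25 μM.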

Data set [3] in a line: MTS assay, cytotoxicity (72 h). The settings on record: human, HEK293a SHH+ cells, 72 h. In kind it is cell-based. Summed up:
(§2)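 Cells plated at 5000/well, cultured 24 h, then exposed to analogues (0.14–100 μM final) in DMEM/10% FBS for 72 h. MTS/PMS added for 3 h at 37 °C and absorbance read at 490 nm; data normalised to DMSO vehicle and puromycin (2 μg/mL) wells, curves fitted with a variable-slope sigmoidal model.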

Another data set concerns HEK293a SHH+ cells. Kind of data set: MTS assay, cytotoxicity (72 h). In kind it is cell-based. The essentials:
as §2
On the technique in general: Formazan colour is commonly taken as a measure of viable cells.

A short description of data set [4]: PAMPA parallel artificial membrane permeability assay. The settings on record: for recovery at 16 h, 10 µM / Papp at 16 h, 10 μM: PAMPA.
Method: (§3) Passive diffusion was estimated using the PAMPA method. […] The donor plate was a MultiScreen-IP Plate with 0.45 μm hydrophobe Immobilon-P Membrane (Millipore, #MAIPNTR10) and the acceptor plate was a MultiScreen 96-well Transport Receiver Plate (Millipore, #MATRNPS50). […] Acceptor pH was 7.4. All samples were analyzed against an external, matrix-matched, standard curve by LC-MS/MS with a Waters (Elstree, Herts. UK) Acquity H-class LC system coupled to a Waters TQ-S mass spectrometer. Permeability values (cm/s) were calculated using the following equation: [drawing 2] and VD = volume of donor; VA = volume of acceptor; area = surface area of the membrane · porosity.

Several values for one entry are separate records, joined by “and”; a condition that tells them apart may be missing. Equal entries are not always repeated. Some results are limits rather than exact numbers.

T1 sequence (Q5VTY9 whole entry): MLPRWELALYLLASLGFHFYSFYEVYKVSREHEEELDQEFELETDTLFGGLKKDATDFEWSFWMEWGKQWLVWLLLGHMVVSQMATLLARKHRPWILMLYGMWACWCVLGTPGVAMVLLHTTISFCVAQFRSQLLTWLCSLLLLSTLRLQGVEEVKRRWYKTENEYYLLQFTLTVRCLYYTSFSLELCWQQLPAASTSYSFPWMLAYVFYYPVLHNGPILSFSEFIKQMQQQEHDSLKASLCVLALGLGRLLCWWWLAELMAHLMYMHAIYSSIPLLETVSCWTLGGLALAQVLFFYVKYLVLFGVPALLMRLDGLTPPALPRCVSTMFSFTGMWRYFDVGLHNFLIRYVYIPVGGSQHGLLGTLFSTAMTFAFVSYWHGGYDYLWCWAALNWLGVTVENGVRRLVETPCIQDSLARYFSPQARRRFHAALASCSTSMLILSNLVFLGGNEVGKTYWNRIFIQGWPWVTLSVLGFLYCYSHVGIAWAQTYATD
Method for in vitro: as §3

Turning to `Cc1cc(=O)n(-c2ccccc2)n1C` [Antipyrine], the results for the recovery at 16 h, 10 µM in “in vitro” (pH 5), in the data set “in vitro” (pH 6.5) and in “in vitro” (pH 7.4) were 109%, 119% and 145%, respectively. Moreover, the Papp at 16 h, 10 μM in “in vitro” (pH 5, PAMPA Papp pH 5) is 6.5 ×10⁻⁶ cm/s; in “in vitro” (pH 5, PAMPA Permeability Class pH 5), 5 to 20 ×10⁻⁶ cm/s; in “in vitro” (pH 6.5, PAMPA Papp pH 6.5) it was 6.6 ×10⁻⁶ cm/s; in the data set “in vitro” (pH 6.5, PAMPA Permeability Class pH 6.5), 5 to 20 ×10⁻⁶ cm/s; in the data set “in vitro” (pH 7.4, PAMPA Papp pH 7.4), 7.3 ×10⁻⁶ cm/s; in “in vitro” (pH 7.4, PAMPA Permeability Class pH 7.4), 5 to 20 ×10⁻⁶ cm/s.

Regarding `CCC(C)CNCC(=O)N1CCc2ccccc2C1c1ccccc1` (stereo not drawn) [Compound 38, 2-((2-Methylbutyl)amino)-1-(1-phenyl-3,4-dihydroisoquinolin-2(1H)-yl)ethan-1-one], the “MLM % metabolized after 15 min” value in data set [1] (15 min) is 100.0% and > 90%. Further, the “MLM % metabolized after 30 min” value in data set [1] (30 min) came to 100.0%. For the same molecule, in data set [2] (15 min), the “HLM % metabolized after 15 min” value was 30.3%. Besides, the “HLM % metabolized after 30 min” value in data set [2] (30 min) is reported as 49.2%. At purified HHAT, the inhibition at 25 µM worked out at 91 ± 5%. This molecule displayed an inhibition at 50 µM against purified HHAT of 95 ± 5%. The same molecule came in with an LLEAcyl-cLIP at purified HHAT (from Acyl-cLIP IC50 and clogDpH7.4) of 2.82. On purified HHAT (purified HHAT, read-out: Acyl-cLIP Assay IC50 (CI95)), the IC50 stood at 7.01 µM. The CC50 at 72 h in data set [3] (read-out: MTS Assay (HEK293a SHH+) CC50 (CI95)) was 8.1 µM. This molecule registered a viability at 72 h, 12.5 µM in data set [3] (12.5 μM) of 69 ± 4%. This molecule also gave a viability at 72 h, 25 µM in data set [3] (25 μM) of 33 ± 6%. The “toxicity to HEK293a SHH+ cells” value in the data set with HEK293a SHH+ cells was “toxic”. Moreover, the recovery at 16 h, 10 µM stood at 91% in data set [4] (pH 5), 45% in data set [4] (pH 6.5) and 17% in data set [4] (pH 7.4). For the same molecule, the Papp at 16 h, 10 μM in data set [4] (pH 5, PAMPA Papp pH 5, donor pH 5, 10 µM) is 1.3 ×10⁻⁶ cm/s; in data set [4] (pH 5, PAMPA Permeability Class pH 5, donor pH 5, 10 µM), less than 5 ×10⁻⁶ cm/s; in data set [4] (pH 6.5, PAMPA Papp pH 6.5, donor pH 6.5, 10 µM), 24.4 ×10⁻⁶ cm/s; in data set [4] (pH 6.5, PAMPA Permeability Class pH 6.5, donor pH 6.5, 10 µM), more than 20 ×10⁻⁶ cm/s; in data set [4] (pH 7.4, PAMPA Papp pH 7.4, donor pH 7.4, 10 µM), 53.9 ×10⁻⁶ cm/s. Besides, the “PAMPA passive permeability” value in data set [4] (pH 7.4) is “high passive permeability”.

As usually defined, the Papp is a coefficient for how fast a substance crosses the barrier. Read a high Papp as fast passage. One may read the inhibition as the percentage by which the read-out fell short of the control. Low values mean a weak effect, high ones a strong effect. The term IC50 denotes the midpoint of a concentration-inhibition curve. The term CC50 denotes the concentration that lowers cell viability or growth by half. By viability is commonly meant the share of living cells, or the viability signal relative to a control.

The record behind these values is article PMC10823475, “Design, Synthesis, and Evaluation of Inhibitors of Hedgehog Acyltransferase” (Journal of Medicinal Chemistry, 2024).
